These results are taken from US20260008758A1, “LINEAR DIPEPTIDYL PEPTIDASE 1 INHIBITORS AND USES THEREOF” (Insmed Incorporated, priority 2024, published 2026).

Where only a bound is given, the exact number is not on record here.

In this assay the target is human DPP1 enzyme (Homo sapiens (Human), UniProt P53634). The experiment in a line: Human DPP1 enzyme IC50 assay. The format is biochemical. As to conditions: recombinant human DPP1, H-Gly-Arg-AMC substrate 400 μM. The procedure: Test articles were applied to activated human DPP1 enzyme in Assay Buffer (25 mM MES pH 6.0, 50 mM NaCl, 5 mM DTT) in a total reaction volume of 125 μL. 25 μL of compound in Assay Buffer plus 5% DMSO was first added to 50 μL of activated human DPP1 enzyme at a concentration of 1 ng/μL and allowed to pre-incubate for 10 minutes at 37° C. after which 50 μL of 1000 μM H-Gly-Arg-AMC substrate (Bachem; St. Torrance, CA) was added, giving final substrate concentration of 400 μM and a final DMSO concentration of 1%. Substrate cleavage was measured for 90 minutes at 37° C., with fluorescence at Excitation/Emission 350/450 nm measured every 5 minutes. DPP1 concentration was interpolated based on its activity relative to a standard curve of activated human recombinant DPP1 enzyme. IC50 values for each compound were calculated via the XLFit (IDBS Version 5.3.1.3) Add-On to Microsoft Excel using the four parameter fit equation y={A+[(B-A)]/[1+((C/x)^D)]}, which appears as equation number 205 (4 Parameter Logistic Model or Sigmoidal Dose-Response Model) in XLFit. Default constraints were used for each Parameter.
Chain of human DPP1 enzyme (P53634 25-134): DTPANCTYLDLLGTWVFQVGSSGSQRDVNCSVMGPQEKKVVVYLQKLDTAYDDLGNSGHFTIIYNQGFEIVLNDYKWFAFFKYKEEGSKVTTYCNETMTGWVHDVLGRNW
Chain of human DPP1 enzyme (P53634 231-394): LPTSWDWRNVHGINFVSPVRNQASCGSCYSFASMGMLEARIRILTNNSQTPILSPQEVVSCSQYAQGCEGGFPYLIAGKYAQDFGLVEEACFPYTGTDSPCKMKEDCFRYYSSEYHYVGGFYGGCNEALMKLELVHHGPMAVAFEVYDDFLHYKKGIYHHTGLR
Chain of human DPP1 enzyme (P53634 395-463): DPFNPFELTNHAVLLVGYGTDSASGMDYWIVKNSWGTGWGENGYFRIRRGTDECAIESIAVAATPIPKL
On to `C[C@@H](N)[C@H](O)C(=O)N[C@H](C#N)Cc1ccc(-c2ccc3oc(=O)n(C)c3c2)cc1` [Compound 102A], for which the IC50 was not below 15 nM. In the case of `C[C@H](N)[C@H](O)C(=O)N[C@H](C#N)Cc1ccc(-c2ccc3oc(=O)n(C)c3c2)cc1` [Compound 102C] it was not below 15 nM; in that of `CN(C)C[C@@H](O)C(=O)N[C@H](C#N)Cc1ccc(-c2ccc3oc(=O)n(C)c3c2)cc1` [Compound 104, (2R)—N-[(1S)-1-cyano-2-[4-(3-methyl-2-oxo-1,3-benzoxazol-5-yl)phenyl]ethyl]-3-(dimethylamino)-2-hydroxypropanamide], not below 15 nM. In the case of `CO[C@H](CN(C)C)C(=O)N[C@H](C#N)Cc1ccc(-c2ccc3oc(=O)n(C)c3c2)cc1` [Compound 112, (2R)—N-[(1S)-1-cyano-2-[4-(3-methyl-2-oxo-1,3-benzoxazol-5-yl)phenyl]ethyl]-3-(dimethylamino)-2-methoxypropanamide] it was not below 15 nM; in that of `CN(C)C[C@@H](O)CC(=O)N[C@H](C#N)Cc1ccc(-c2ccc3oc(=O)n(C)c3c2)cc1` [Compound 113, (3S)—N-[(1S)-1-cyano-2-[4-(3-methyl-2-oxo-1,3-benzoxazol-5-yl)phenyl]ethyl]-4-(dimethylamino)-3-hydroxybutanamide], not below 15 nM. In the case of `CCN(CC)C[C@H](O)C(=O)N[C@H](C#N)Cc1ccc(-c2ccc3oc(=O)n(C)c3c2)cc1` [Compound 115, (2S)—N-[(1S)-1-cyano-2-[4-(3-methyl-2-oxo-1,3-benzoxazol-5-yl)phenyl]ethyl]-3-(diethylamino)-2-hydroxypropanamide] it was not below 15 nM.

Regarding `CCN(CC)C[C@@H](O)C(=O)N[C@H](C#N)Cc1ccc(-c2ccc3oc(=O)n(C)c3c2)cc1` [Compound 116, (2R)—N-[(1S)-1-cyano-2-[4-(3-methyl-2-oxo-1,3-benzoxazol-5-yl)phenyl]ethyl]-3-(diethylamino)-2-hydroxypropanamide], the 50% inhibitory concentration (IC50) was not below 15 nM. With `CN(C)C[C@H](O)CC(=O)N[C@H](C#N)Cc1ccc(-c2ccc3oc(=O)n(C)c3c2)cc1` [Compound 118, (3R)—N-[(1S)-1-cyano-2-[4-(3-methyl-2-oxo-1,3-benzoxazol-5-yl)phenyl]ethyl]-4-(dimethylamino)-3-hydroxybutanamide], the IC50 is not below 15 nM. Turning to `Cn1c(=O)oc2ccc(-c3ccc(C[C@@H](C#N)NC(=O)[C@@H](O)CN4CCCC4)cc3)cc21` [Compound 120, (2S)—N-[(1S)-1-cyano-2-[4-(3-methyl-2-oxo-1,3-benzoxazol-5-yl)phenyl]ethyl]-2-hydroxy-3-(pyrrolidin-1-yl)propanamide], the half-maximal inhibitory concentration (IC50) was not below 15 nM. For the compound `Cn1c(=O)oc2ccc(-c3ccc(C[C@@H](C#N)NC(=O)[C@@H](O)CN4CCOCC4)cc3)cc21` [Compound 121, (2S)—N-[(1S)-1-cyano-2-[4-(3-methyl-2-oxo-1,3-benzoxazol-5-yl)phenyl]ethyl]-2-hydroxy-3-(morpholin-4-yl)propanamide], the half-inhibitory concentration (IC50) was not below 15 nM. On to `CCN(C)C[C@H](OC)C(=O)N[C@H](C#N)Cc1ccc(-c2ccc3oc(=O)n(C)c3c2)cc1` [Compound 130, (2S)—N-[(1S)-1-cyano-2-[4-(3-methyl-2-oxo-1,3-benzoxazol-5-yl)phenyl]ethyl]-3-[ethyl(methyl)amino]-2-methoxypropanamide], for which the IC50 was not below 15 nM. The result for `CC(CO)CC(N)C(=O)N[C@H](C#N)Cc1ccc(-c2ccc3oc(=O)n(C)c3c2)cc1` (stereo partly drawn) [Compound 168, 2-amino-N-[(1S)-1-cyano-2-[4-(3-methyl-2-oxo-1,3-benzoxazol-5-yl)phenyl]ethyl]-5-hydroxy-4-methylpentanamide] reads not below 15 nM; that for `C[C@@H](O)[C@@](C)(N)C(=O)N[C@H](C#N)Cc1ccc(-c2ccc3oc(=O)n(C)c3c2)cc1` [Compound 171C, (2R,3R)-2-amino-N-[(1S)-1-cyano-2-[4-(3-methyl-2-oxo-1,3-benzoxazol-5-yl)phenyl]ethyl]-3-hydroxy-2-methylbutanamide], not below 15 nM.

For `CC(O)CNCC(=O)N[C@H](C#N)Cc1ccc(-c2ccc3oc(=O)n(C)c3c2)cc1` (stereo partly drawn) [Compound 174, N—((S)-1-cyano-2-(4-(3-methyl-2-oxo-2,3-dihydrobenzo[d]oxazol-5-yl)phenyl)ethyl)-2-((2-hydroxypropyl)amino)acetamide], the half-maximal inhibitory concentration (IC50) was not below 15 nM.

In the case of `Cn1c(=O)oc2ccc(-c3ccc(C[C@@H](C#N)NC(=O)CC(N)c4ccccc4)cc3)cc21` (stereo partly drawn) [Compound 189, 3-amino-N-[(1S)-1-cyano-2-[4-(3-methyl-2-oxo-2,3-dihydro-1,3-benzoxazol-5-yl)phenyl]ethyl]-3-phenylpropanamide], the IC50 was not below 15 nM. In the case of `Cn1c(=O)oc2ccc(-c3ccc(C[C@@H](C#N)NC(=O)C(CN)Cc4cccnc4)cc3)cc21` (stereo partly drawn) [Compound 191, 3-Amino-N-[(1S)-1-cyano-2-[4-(3-methyl-2-oxo-1,3-benzoxazol-5-yl)phenyl]ethyl]-2-(pyridin-3-ylmethyl) propanamide] it was not below 15 nM.

`Cc1ccccc1CC(CN)C(=O)N[C@H](C#N)Cc1ccc(-c2ccc3oc(=O)n(C)c3c2)cc1` (some centres unmarked) [Compound 192]: the 50% inhibitory concentration (IC50) is not below 15 nM. In the case of `Cc1ccccc1C[C@H](CN)C(=O)N[C@H](C#N)Cc1ccc(-c2ccc3oc(=O)n(C)c3c2)cc1` [Compound 193, (2R)-3-amino-N-[(1S)-1-cyano-2-[4-(3-methyl-2-oxo-1,3-benzoxazol-5-yl)phenyl]ethyl]-2-[(2-methylphenyl)methyl]propanamide] it was not below 15 nM; in that of `Cc1ccccc1C[C@@H](CN)C(=O)N[C@H](C#N)Cc1ccc(-c2ccc3oc(=O)n(C)c3c2)cc1` [Compound 194, (2S)-3-amino-N-[(1S)-1-cyano-2-[4-(3-methyl-2-oxo-1,3-benzoxazol-5-yl)phenyl]ethyl]-2-[(2-methylphenyl)methyl]propanamide], not below 15 nM.

On to `Cn1c(=O)oc2ccc(-c3ccc(C[C@@H](C#N)NC(=O)C(C)(CN)Cc4ccccc4F)cc3)cc21` (stereo partly drawn) [Compound 196, 3-Amino-N-[(1S)-1-cyano-2-[4-(3-methyl-2-oxo-1,3-benzoxazol-5-yl)phenyl]ethyl]-2-[(2-fluorophenyl)methyl]-2-methylpropanamide], for which the IC50 was not below 15 nM. In the case of `Cn1c(=O)oc2ccc(-c3ccc(C[C@@H](C#N)NC(=O)C(C)(CN)Cc4c(F)cccc4Cl)cc3)cc21` (stereo partly drawn) [Compound 197, 3-amino-2-[(2-chloro-6-fluorophenyl)methyl]-N-[(1S)-1-cyano-2-[4-(3-methyl-2-oxo-1,3-benzoxazol-5-yl)phenyl]ethyl]-2-methylpropanamide] it was not below 15 nM; in that of `Cc1ccccc1[C@@H](N)CC(=O)N[C@H](C#N)Cc1ccc(-c2ccc3oc(=O)n(C)c3c2)cc1` [Compound 198, (3S)-3-amino-N-[(1S)-1-cyano-2-[4-(3-methyl-2-oxo-1,3-benzoxazol-5-yl)phenyl]ethyl]-3-(2-methylphenyl)propanamide], not below 15 nM. In the case of `Cn1c(=O)oc2ccc(-c3ccc(C[C@@H](C#N)NC(=O)C(C)(N)c4ccc(O)cc4)cc3)cc21` (stereo partly drawn) [Compound 200, 2-amino-N-[(1S)-1-cyano-2-[4-(3-methyl-2-oxo-1,3-benzoxazol-5-yl)phenyl]ethyl]-2-(4-hydroxyphenyl)propanamide] it was not below 15 nM; in that of `Cn1c(=O)oc2ccc(-c3ccc(C[C@@H](C#N)NC(=O)C(C)(N)c4cccnc4)cc3)cc21` (stereo partly drawn) [Compound 216, 2-amino-N-[(1S)-1-cyano-2-[4-(3-methyl-2-oxo-1,3-benzoxazol-5-yl)phenyl]ethyl]-2-(pyridin-3-yl)propanamide], not below 15 nM. `Cn1c(=O)oc2ccc(-c3ccc(C[C@@H](C#N)NC(=O)C(N)Cc4cncc(O)c4)cc3)cc21` (stereo partly drawn) [Compound 217, 2-amino-N-[(1S)-1-cyano-2-[4-(3-methyl-2-oxo-1,3-benzoxazol-5-yl)phenyl]ethyl]-3-(5-hydroxypyridin-3-yl)propanamide]: the IC50 was not below 15 nM. Take `Cn1c(=O)oc2ccc(-c3ccc(C[C@@H](C#N)NC(=O)C[C@@H](N)Cc4cccc(O)c4)cc3)cc21` [Compound 225, (3S)-3-amino-N-[(1S)-1-cyano-2-[4-(3-methyl-2-oxo-1,3-benzoxazol-5-yl)phenyl]ethyl]-4-(3-hydroxyphenyl)butanamide]: the half-maximal inhibitory concentration (IC50) is not below 15 nM.

As for `Cn1c(=O)oc2ccc(-c3ccc(C[C@@H](C#N)NC(=O)C[C@@H](N)C4CCCO4)cc3)cc21` (stereo partly drawn) [Compound 226, (3R)-3-amino-N—((S)-1-cyano-2-(4-(3-methyl-2-oxo-2,3-dihydrobenzo[d]oxazol-5-yl)phenyl)ethyl)-3-(tetrahydrofuran-2-yl)propanamide], the IC50 was not below 15 nM. In the case of `Cn1c(=O)oc2ccc(-c3ccc(C[C@@H](C#N)NC(=O)C[C@H](N)c4ccccc4O)cc3)cc21` [Compound 227A, (3S)-3-amino-N-[(1S)-1-cyano-2-[4-(3-methyl-2-oxo-1,3-benzoxazol-5-yl)phenyl]ethyl]-3-(2-hydroxyphenyl)propenamide] it was not below 15 nM. The result for `Cn1c(=O)oc2ccc(-c3ccc(C[C@@H](C#N)NC(=O)C[C@@H](N)c4ccccc4O)cc3)cc21` [Compound 227B, (3R)-3-amino-N-[(1S)-1-cyano-2-[4-(3-methyl-2-oxo-1,3-benzoxazol-5-yl)phenyl]ethyl]-3-(2-hydroxyphenyl)propanamide] reads not below 15 nM.
